The subject of data set [1] is PC-3. Briefly: Cytotoxicity against human PC-3 cells assessed as inhibition of cell growth. Format: functional, cell-based.
For data set [2], the system named is MCF7. In words: Cytotoxicity against human MCF7 cells assessed as inhibition of cell growth. Format: functional, cell-based.
In data set [3] the test system is PC-3. Briefly: Cytotoxicity against human PC-3 cells. The class given is functional, cell-based.
Data set [4] can be described thus: Cytotoxicity against human HEK cells. Format: toxicity, cell-based.
The nature of data set [5]: Antiproliferative activity against human MRC5 cells assessed as reduction in cell growth. The class given is toxicity, cell-based.
The test system of data set [6] is PANC-1. In words: Induction of apoptosis in human PANC-1 cells assessed as apoptotic cells at 2 uM incubated for 24 hrs by flow cytometric analysis relative to control. The class given is functional. (A flow cytometer gives signals particle by particle.)
For data set [7], the system named is HepG2. Briefly: Cytotoxicity against human HepG2 cells assessed as reduction in cell viability by MTT assay. Format: functional, cell-based. For orientation: Formazan colour is commonly taken as a measure of viable cells.
Data set [8] has as its system HCT-116. In words: Cytotoxicity against human HCT-116 cells assessed as reduction in cell viability by MTT assay. Format: functional, cell-based.
In data set [9] the test system is MCF7. In words: Cytotoxicity against human MCF7 cells assessed as reduction in cell viability by MTT assay. The class given is functional, cell-based.
The subject of data set [10] is HeLa. In words: Cytotoxicity against human HeLa cells assessed as reduction in cell viability by MTT assay. Format: functional, cell-based.
For data set [11], the system named is Mus musculus. Briefly: Anticonvulsant activity in ip dosed MES induced mouse model measured after 4 hrs. The class given is functional.
Data set [12] is described as follows: Inhibition of Lipoxygenase (unknown origin). Set-up: species or system Homo sapiens.
For data set [13], the system named is MCF7. Briefly: Antiproliferative activity against human MCF7 cells assessed as reduction in cell viability measured after 48 hrs by MTT assay. Format: functional, cell-based. The conditions noted are these: MCF7, 48 h.
The target of data set [14] is Acetylcholinesterase (Electrophorus electricus, UniProt O42275). Briefly: Inhibition of electric eel AChE using acetylthiocholine iodide as substrate incubated for 15 mins by Ellman's method. A general note: DTNB colorimetry detects thiols as they appear.
Sequence of Acetylcholinesterase (O42275 whole entry): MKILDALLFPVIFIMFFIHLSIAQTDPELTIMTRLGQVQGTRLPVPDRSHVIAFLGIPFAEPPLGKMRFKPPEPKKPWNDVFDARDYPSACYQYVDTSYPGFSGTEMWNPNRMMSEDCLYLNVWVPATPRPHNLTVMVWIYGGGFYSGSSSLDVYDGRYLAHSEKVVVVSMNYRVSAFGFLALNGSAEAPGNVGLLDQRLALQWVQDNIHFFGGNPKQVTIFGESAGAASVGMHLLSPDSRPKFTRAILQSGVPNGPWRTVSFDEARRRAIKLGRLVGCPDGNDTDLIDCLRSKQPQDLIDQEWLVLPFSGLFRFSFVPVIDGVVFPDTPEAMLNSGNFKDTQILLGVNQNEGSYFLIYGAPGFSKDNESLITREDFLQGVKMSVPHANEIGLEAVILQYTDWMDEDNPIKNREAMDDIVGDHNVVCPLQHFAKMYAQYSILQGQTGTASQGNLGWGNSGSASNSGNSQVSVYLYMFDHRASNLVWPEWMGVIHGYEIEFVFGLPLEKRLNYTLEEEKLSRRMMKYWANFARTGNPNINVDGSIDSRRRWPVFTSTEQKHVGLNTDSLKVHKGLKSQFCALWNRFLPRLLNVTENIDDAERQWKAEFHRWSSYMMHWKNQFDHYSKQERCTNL
Data set [15] deals with Cholinesterase (Equus caballus, UniProt P81908). In words: Inhibition of equine serum BChE using butyrylthiocholine iodide as substrate measured after 15 mins by Ellman's method.
Sequence of Cholinesterase (P81908 whole entry): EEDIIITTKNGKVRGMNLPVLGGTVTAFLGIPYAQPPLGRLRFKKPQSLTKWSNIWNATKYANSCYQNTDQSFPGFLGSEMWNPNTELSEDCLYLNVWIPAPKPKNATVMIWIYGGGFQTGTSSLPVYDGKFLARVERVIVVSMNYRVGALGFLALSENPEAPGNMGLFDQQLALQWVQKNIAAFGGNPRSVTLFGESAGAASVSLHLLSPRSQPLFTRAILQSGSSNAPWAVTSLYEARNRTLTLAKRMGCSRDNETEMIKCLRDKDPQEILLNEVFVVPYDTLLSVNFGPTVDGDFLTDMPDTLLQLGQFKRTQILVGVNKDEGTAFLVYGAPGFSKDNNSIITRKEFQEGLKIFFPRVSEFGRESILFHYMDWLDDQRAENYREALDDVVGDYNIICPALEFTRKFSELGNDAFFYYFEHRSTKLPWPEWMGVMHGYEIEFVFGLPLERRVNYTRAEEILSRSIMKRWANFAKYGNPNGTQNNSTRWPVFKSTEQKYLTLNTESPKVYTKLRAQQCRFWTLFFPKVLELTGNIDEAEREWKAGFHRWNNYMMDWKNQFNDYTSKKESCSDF
The subject of data set [16] is HepG2. In words: Antiproliferative activity against human HepG2 cells assessed as reduction in cell viability incubated for 72 hrs by MTT assay. Format: functional, cell-based. The conditions noted are these: HepG2, 72 h.
A short description of data set [17]: Antiplatelet activity in human platelets assessed as inhibition of collagen-induced platelet aggregation at 10 uM relative to control. Set-up: scale not given: the % may be the effect or the level left. The class given is functional.
A short description of data set [18]: Antiplatelet activity in human platelets assessed as inhibition of collagen-induced platelet aggregation at 20 uM relative to control. The arrangement: scale not given: the % may be the effect or the level left. Format: functional.
Data set [19] concerns PC-3. Briefly: Antiproliferative activity against human PC-3 cells assessed as inhibition of cell growth at 10 uM relative to control. Format: functional. Set-up: scale not given: the % may be the effect or the level left. The conditions noted are these: pooled result: one value given for 4 cell lines, strains, targets or settings.
Data set [20] concerns UO-31. Briefly: Antiproliferative activity against human UO-31 cells assessed as inhibition of cell growth at 10 uM relative to control. Format: functional. The arrangement: scale not given: the % may be the effect or the level left.
In data set [21] the test system is Mus musculus. In words: Anticonvulsant activity in po dosed scPTZ induced Albino mouse seizure model measured after 4 hrs. The class given is functional.
Data set [22] concerns MCF7. Briefly: Antiproliferative activity against human MCF7 cells assessed as reduction in cell growth incubated for 48 hrs by MTT assay. Format: functional, cell-based. The conditions noted are these: MCF7, 48 h.
In data set [23] the test system is HepG2. Briefly: Antiproliferative activity against human HepG2 cells assessed as inhibition of cell growth incubated for 48 hrs by MTT assay. Format: functional, cell-based. The settings on record: HepG2, 48 h.
The nature of data set [24]: Inhibition of alpha amylase (unknown origin). Set-up: species or system Homo sapiens.
Data set [25] relates to AR-42J cell line. In words: Antiproliferative activity against AR42J cells assessed as reduction in cell viability incubated for 24 hrs by MTT colorimetric assay. The conditions noted are these: Rattus norvegicus. Format: functional, cell-based.
Data set [26] concerns Mus musculus. In words: Anticonvulsant activity in ip dosed MES induced mouse model measured after 2 hrs. The class given is functional.
The target in data set [27] is Alpha glucosidase (Homo sapiens, UniProt O43451+P10253+P14410+Q2M2H8). In words: Inhibition of Alpha glucosidase (unknown origin). Format: protein assay.
In data set [28] the target is Polyunsaturated fatty acid 5-lipoxygenase (Homo sapiens, UniProt P09917). Briefly: Inhibition of 5-LOX (unknown origin).
Sequence of Polyunsaturated fatty acid 5-lipoxygenase (P09917 whole entry): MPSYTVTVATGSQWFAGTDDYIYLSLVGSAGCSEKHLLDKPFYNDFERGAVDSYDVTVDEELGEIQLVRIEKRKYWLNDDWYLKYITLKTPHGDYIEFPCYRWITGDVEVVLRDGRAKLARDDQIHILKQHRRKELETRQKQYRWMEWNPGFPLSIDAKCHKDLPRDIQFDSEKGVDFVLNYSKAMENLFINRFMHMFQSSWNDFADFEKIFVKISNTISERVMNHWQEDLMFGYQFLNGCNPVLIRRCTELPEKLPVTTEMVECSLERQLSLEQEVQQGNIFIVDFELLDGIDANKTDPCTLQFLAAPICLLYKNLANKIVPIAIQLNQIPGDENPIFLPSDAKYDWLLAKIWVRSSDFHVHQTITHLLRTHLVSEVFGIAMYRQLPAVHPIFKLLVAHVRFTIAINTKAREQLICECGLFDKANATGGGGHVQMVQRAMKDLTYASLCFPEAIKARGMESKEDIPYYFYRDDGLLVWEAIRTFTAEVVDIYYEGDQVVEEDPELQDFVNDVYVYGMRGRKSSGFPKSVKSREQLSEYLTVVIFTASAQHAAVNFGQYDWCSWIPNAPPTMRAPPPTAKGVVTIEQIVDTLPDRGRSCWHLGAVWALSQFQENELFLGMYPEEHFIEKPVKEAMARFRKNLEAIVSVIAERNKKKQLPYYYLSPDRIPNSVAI
Data set [29] is described as follows: Tmax in rat at 2 mg/kg, po by LC-MS/MS analysis. The class given is ADME, organism-based. The conditions noted are these: in vivo.
Data set [30] can be described thus: Half life in rat at 2 mg/kg, po by LC-MS/MS analysis. Format: ADME, organism-based. The settings on record: in vivo.
Data set [31] deals with HepG2. In words: Antiproliferative activity against human HepG2 cells assessed as reduction in cell growth incubated for 24 hrs by MTT assay. The class given is functional, cell-based. The conditions noted are these: HepG2, 24 h.
In data set [32] the test system is NCI-H1563. In words: Antiproliferative activity against human NCI-H1563 cells assessed as reduction in cell growth incubated for 24 hrs by MTT assay. The conditions noted are these: NCI-H1563, 24 h. Format: functional, cell-based.
For data set [33], the system named is 769-P. Briefly: Antiproliferative activity against human 769-P cells assessed as reduction in cell growth incubated for 48 hrs by MTT assay. Format: functional, cell-based.
In data set [34] the test system is HepG2. In words: Antiproliferative activity against human HepG2 cells assessed as reduction in cell growth incubated for 48 hrs by MTT assay. The settings on record: HepG2, 48 h. The class given is functional, cell-based.
For data set [35], the system named is HEK293. In words: Antiproliferative activity against HEK293 cells assessed as inhibition of cell growth incubated for 48 hrs by CCK8 assay. The settings on record: Homo sapiens, HEK293, 48 h. Format: functional, cell-based.
Data set [36] concerns the target DNA topoisomerase 1 (Homo sapiens, UniProt P11387). In words: Inhibition of DNA topoisomerase I (unknown origin).
Data set [37] has as its system P388. In words: Cytotoxicity against mouse P388 cells assessed as reduction in cell viability. Format: functional, cell-based.
Data set [38] deals with MKN-45. Briefly: Antiproliferative activity against human MKN-45 cells assessed as inhibition of cell growth by MTT assay. Format: functional, cell-based.

In brackets after ≈: the same amount, converted by molar mass.

The text below walks through data of ChEMBL document CHEMBL6127051, “Hydrazinecarboxamides: Comprehensive review of their anticancer, anticonvulsive, anti-inflammatory, enzyme inhibition, antioxidant and other activities” (Eur J Med Chem, 2024).

Sequence of DNA topoisomerase 1 (P11387 whole entry): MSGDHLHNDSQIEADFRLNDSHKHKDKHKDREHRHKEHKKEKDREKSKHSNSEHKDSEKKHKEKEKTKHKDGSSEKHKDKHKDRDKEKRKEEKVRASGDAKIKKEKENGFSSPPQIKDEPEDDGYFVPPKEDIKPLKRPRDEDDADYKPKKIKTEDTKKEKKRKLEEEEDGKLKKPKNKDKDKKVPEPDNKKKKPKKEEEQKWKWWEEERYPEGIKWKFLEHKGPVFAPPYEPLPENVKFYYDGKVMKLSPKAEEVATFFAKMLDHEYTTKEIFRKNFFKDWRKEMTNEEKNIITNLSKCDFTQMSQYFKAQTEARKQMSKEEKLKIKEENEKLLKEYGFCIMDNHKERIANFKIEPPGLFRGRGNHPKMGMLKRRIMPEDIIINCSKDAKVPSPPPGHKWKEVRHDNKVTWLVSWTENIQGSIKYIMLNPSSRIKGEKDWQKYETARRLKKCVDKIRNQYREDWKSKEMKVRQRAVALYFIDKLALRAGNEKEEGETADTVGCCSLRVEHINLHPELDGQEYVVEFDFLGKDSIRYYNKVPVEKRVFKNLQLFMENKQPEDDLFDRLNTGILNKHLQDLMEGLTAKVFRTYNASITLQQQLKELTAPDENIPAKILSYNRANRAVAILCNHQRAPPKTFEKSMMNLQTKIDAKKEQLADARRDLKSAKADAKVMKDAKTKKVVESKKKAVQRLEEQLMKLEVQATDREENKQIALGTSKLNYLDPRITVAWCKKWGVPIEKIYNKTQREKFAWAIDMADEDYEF

One may read the IC50 as the point on the concentration scale where inhibition reaches its midpoint. Take `CCc1nc2cc(Cl)c(Cl)cc2n1CC(=O)NNC(=O)Nc1ccccc1`: the IC50 in data set [1] came out at 25.2 µg/mL (≈ 62 µM); in data set [2], 25.2 µg/mL (≈ 62 µM); in data set [3], 25.2 µg/mL (≈ 62 µM); in [4], 127 µg/mL (≈ 312 µM).
For `COc1ccc(NC(=O)NNC(=O)c2oc3ccccc3c2CN2CCN(c3ccccc3)CC2)cn1`, the IC50 in [5] came out at 74 µM. Moreover, in data set [6], the Activity was determined as 29.93%.
For the molecule `Cc1c(C(=O)NNC(=O)Nc2ccc([N+](=O)[O-])cc2)nnn1Cc1nc2ccccc2[nH]1`, the IC50 in data set [7] is 25 µM; in [8], 32.8 µM; in data set [9], 16.6 µM; in data set [10], 19.1 µM.
As for `NNC(=O)Nc1ccccc1Cl`, the Activity in data set [11] is recorded as 66.6%.
Regarding `CC(C(=O)O)c1cccc(Oc2ccccc2)c1` (centres undefined) [FENOPROFEN], 60 µM corresponded to half-maximal inhibition in data set [12] (IC50).
As for `COc1cc(/C=C2\SC(=S)N(n3c(=O)[nH]c4ccccc4c3=O)C2=O)ccc1OC(=O)c1ccccc1`, the IC50 in data set [13] was found to be 0.012 µM.
Turning to `CCCCCCCCCCCCCNC(=O)NNC(=O)c1ccc(C(F)(F)F)cc1`, the IC50 was 27 µM in [14] and 58 µM in data set [15].
On to `Cc1ccc(S(=O)(=O)NC(=O)NNC(=O)Cn2c(C(C)C)nc3ccccc32)cc1`, for which, in [16], the IC50 turned out to be 80.7 µM.
In the case of `O=C(NNc1ccnc2ccccc12)Nc1ccccc1`, the Activity in data set [17] was determined as 11.7%; in [18], 10.6%.
With `CC(=O)Nc1nc(C)c(C(=O)NNC(=O)Nc2ccccc2)s1`, the Activity in data set [19] and in data set [20] was 14.8% throughout.
The ED50 is the dose that gives a 50% effect, or the effect in half of the subjects. Consider `O=C(CSc1nc2ccccc2n2cnnc12)NNC(=O)NC1CCCCC1`, for which it took a dose of 30 mg/kg to reach the 50% effect level in [21] (ED50).
Take `O=C(NNC(=O)C(=O)Nc1ccccc1)Nc1ccccc1`: the IC50 in data set [22] was found to be 10.3 µM; in [23], 7.73 µM.
With `O=C(CNc1nc2ccccc2n1C(=O)Nc1ccccc1)NNC(=O)Nc1ccccc1`, the IC50 was determined as 64.8 µM in [24] and 304 µM in [25].
With `Cc1ccc(NC(=O)NN)cc1`, the Activity in data set [26] is reported as 100%.
Regarding `Cc1ccc(C[C@@H]2C[C@H]3C(=O)N(C)C4(C[C@H](C)CC[C@H]4C(C)C)N3O2)c(OCC(=O)NNC(=O)Nc2cccc3ccccc23)c1` (some centres undefined), the results for the IC50 in data set [24] and in data set [27] were 53 µM and 94.33 µM, respectively.
In general, Tmax refers to the time at which the peak concentration occurs. In general, half-life refers to the time in which the quantity being followed falls by half. `O=C1NCCN(c2ccccc2)N1` came in with an IC50 in data set [28] of 5 µM. The Tmax in data set [29] was 1 h. Besides, the half-life in data set [30] was 3.3 h.
Turning to `CCNC(=O)NNC(=O)c1ccc([N+](=O)[O-])cc1`, the IC50 in [31] was found to be 7.06 µM; in data set [32] it was 336 µM; in data set [33], 4780 µM; in data set [34] it was 1930 µM; in [35] it was 1500 µM.
As to `O=C(Nc1ccccc1)NN1C(=O)c2c(c3c4cccc(O)c4n([C@H]4O[C@H](CO)[C@@H](O)[C@H](O)[C@H]4O)c3c3[nH]c4c(O)cccc4c23)C1=O`, the IC50 was found to be 0.25 µM in [36], 0.035 µM in data set [37] and 0.035 µM in [38].
